Test results as given in patent US8927500B2, “Peptidomimetic macrocycles” (Aileron Therapeutics, Inc., priority 2012, dated 2015).
Where a SMILES comes first, the peptide text is derived from it. Bridges are numbered along the chain shown (N, C = ends). [ ]: non-standard residue; d: D form. The star is where a group is joined. Phe(3,4-F2) = N[C@@H](Cc1ccc(F)c(F)c1)C(=O)O; Palmitoyl = CCCCCCCCCCCCCCCC(=O)*; R8 = C=CCCCCCC[C@@](C)(N)C(=O)O; Cba = N[C@@H](CC1CCC1)C(=O)O; S5 = C=CCCC[C@](C)(N)C(=O)O; Nle = CCCC[C@H](N)C(=O)O

Tests used:
MDMX = target: T1, MDMX (Homo sapiens, UniProt O15151); assay: Competitive fluorescence polarization assay for MDMX; format: binding; settings: competitive FP assay; for IC50: read-out: IC50 (MDMX); for Ki: read-out: Ki (MDMX)
T1 sequence (O15151 1-125): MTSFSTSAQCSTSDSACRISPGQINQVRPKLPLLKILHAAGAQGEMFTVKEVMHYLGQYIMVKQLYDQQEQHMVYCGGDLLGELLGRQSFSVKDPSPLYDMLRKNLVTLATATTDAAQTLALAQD

MDM2 = MDM2 (Homo sapiens, UniProt Q00987); assay: Competitive fluorescence polarization assay for MDM2; format: binding; settings: competitive FP assay, MDM2; for IC50: read-out: IC50 (MDM2); for Ki: read-out: Ki (MDM2)
MDM2, sequence (Q00987 1-125): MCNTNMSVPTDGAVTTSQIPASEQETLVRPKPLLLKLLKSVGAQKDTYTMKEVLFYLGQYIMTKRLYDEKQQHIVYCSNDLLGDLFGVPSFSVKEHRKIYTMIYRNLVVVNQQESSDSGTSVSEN

Structure (SMILES) | IC50 (MDMX) [nM] | Ki (MDMX) [nM] | IC50 (MDM2) [nM] | Ki (MDM2) [nM]
CC(=O)N[C@@H](CC(C)C)C(=O)N[C@H](C(=O)N[C@@H](Cc1ccccc1)C(=O)N[C@]1(C)CCCCCCC=CCCC[C@@](C)(C(=O)N[C@@H](CO)C(=O)N[C@@H](CC(N)=O)C(=O)N[C@H](C)C(N)=O)NC(=O)[C@H](CC(C)C)NC(=O)[C@H](CCC(N)=O)NC(=O)[C@H](C)NC(=O)[C@H](Cc2c[nH]c3ccccc23)NC(=O)[C@H](Cc2ccc(O)cc2)NC(=O)[C@H](C(C)C)NC1=O)[C@@H](C)O [compound 135] (Ac-LTF[R8]VYWAQL[S5]SN[dA]-NH2; staple 4-11) | 100 to 1000 | 10 to 100 | < 10 | < 10
CC(=O)N[C@@H](CCC(=O)O)C(=O)N[C@H](C(=O)N[C@@H](Cc1ccccc1)C(=O)N[C@]1(C)CCCCCCC=CCCC[C@@](C)(C(=O)N[C@@H](CO)C(=O)N[C@@H](CC(N)=O)C(=O)N[C@H](C)C(N)=O)NC(=O)[C@H](CC(C)C)NC(=O)[C@H](CCC(N)=O)NC(=O)[C@H](C)NC(=O)[C@H](Cc2c[nH]c3ccccc23)NC(=O)[C@H](Cc2ccc(O)cc2)NC(=O)[C@H](C(C)C)NC1=O)[C@@H](C)O [compound 136] (Ac-ETF[R8]VYWAQL[S5]SN[dA]-NH2; staple 4-11) | 100 to 1000 | 10 to 100 | < 10 | < 10
CC[C@H](C)[C@H](NC(=O)[C@H](C)NC(=O)[C@H](C)NC(=O)[C@]1(C)CCCC=CCCCCCC[C@@](C)(NC(=O)[C@H](Cc2ccccc2)NC(=O)[C@@H](NC(=O)[C@H](CC(C)C)NC(C)=O)[C@@H](C)O)C(=O)N[C@@H](C)C(=O)N[C@@H](CCC(=O)O)C(=O)N[C@@H](Cc2c[nH]c3ccccc23)C(=O)N[C@@H](C)C(=O)N[C@@H](CCC(N)=O)C(=O)N[C@@H](CC(C)C)C(=O)N1)C(=O)N[C@H](C)C(N)=O [compound 180] (Ac-LTF[R8]AEWAQL[S5]AAI[dA]-NH2; staple 4-11) | 100 to 1000 | 10 to 100 | 10 to 100 | < 10
CC[C@H](C)[C@H](NC(C)=O)C(=O)N[C@H](C(=O)N[C@@H](Cc1ccccc1)C(=O)N[C@]1(C)CCCCCCC=CCCC[C@@](C)(C(=O)N[C@@H](C)C(=O)N[C@@H](CCC(=O)O)C(=O)N[C@@H](Cc2ccccc2)C(=O)N[C@@H](C)C(N)=O)NC(=O)[C@H](CC(C)C)NC(=O)[C@H](CCC(N)=O)NC(=O)[C@H](C)NC(=O)[C@H](Cc2c[nH]c3ccccc23)NC(=O)[C@H](Cc2c[nH]cn2)NC(=O)[C@H](Cc2ccccc2)NC1=O)[C@@H](C)O [compound 186] (Ac-ITF[R8]FHWAQL[S5]AEFA-NH2; staple 4-11) | 100 to 1000 | 10 to 100 | 10 to 100 | < 10
CC[C@H](C)[C@H](NC(C)=O)C(=O)N[C@H](C(=O)N[C@@H](Cc1ccccc1)C(=O)N[C@]1(C)CCCCCCC=CCCC[C@@](C)(C(=O)N[C@@H](C)C(=O)N[C@@H](Cc2c[nH]cn2)C(=O)N[C@@H](Cc2ccccc2)C(=O)N[C@@H](C)C(N)=O)NC(=O)[C@H](CC(C)C)NC(=O)[C@H](CCC(N)=O)NC(=O)[C@H](C(C)C)NC(=O)[C@H](Cc2c[nH]c3ccccc23)NC(=O)[C@H](Cc2ccc(O)cc2)NC(=O)[C@H](CCC(=O)O)NC1=O)[C@@H](C)O [compound 192] (Ac-ITF[R8]EYWVQL[S5]AHFA-NH2; staple 4-11) | 100 to 1000 | 10 to 100 | 10 to 100 | < 10
CC[C@H](C)[C@H](NC(=O)[C@H](Cc1c[nH]cn1)NC(=O)[C@H](C)NC(=O)[C@]1(C)CCCC=CCCCCCC[C@@](C)(NC(=O)[C@H](Cc2ccccc2)NC(=O)[C@@H](NC(=O)[C@H](CC(C)C)NC(C)=O)[C@@H](C)O)C(=O)N[C@@H](C)C(=O)N[C@@H](Cc2c[nH]cn2)C(=O)N[C@@H](Cc2c[nH]c3ccccc23)C(=O)N[C@@H](C)C(=O)N[C@@H](CCC(N)=O)C(=O)N[C@@H](CC(C)C)C(=O)N1)C(=O)N[C@H](C)C(N)=O [compound 207] (Ac-LTF[R8]AHWAQL[S5]AHI[dA]-NH2; staple 4-11) | 100 to 1000 | 10 to 100 | < 10 | < 10
CCCC[C@H](NC(=O)[C@H](C)NC(=O)[C@H](C)NC(=O)[C@]1(C)CCCC=CCCCCCC[C@@](C)(NC(=O)[C@H](Cc2ccccc2)NC(=O)[C@@H](NC(=O)[C@H](CC(C)C)NC(C)=O)[C@@H](C)O)C(=O)N[C@@H](C)C(=O)N[C@@H](Cc2ccc(O)cc2)C(=O)N[C@@H](Cc2c[nH]c3ccccc23)C(=O)N[C@@H](C)C(=O)N[C@@H](CCC(N)=O)C(=O)N[C@@H](CC2CCC2)C(=O)N1)C(=O)N[C@@H](C)C(N)=O [compound 236] (Ac-LTF[R8]AYWAQ[Cba][S5]AA[Nle]A-NH2; staple 4-11) | 100 to 1000 | 10 to 100 | 10 to 100 | < 10
CCCC[C@H](NC(=O)[C@H](Cc1c[nH]c2ccccc12)NC(=O)[C@H](C)NC(=O)[C@]1(C)CCCC=CCCCCCC[C@@](C)(NC(=O)[C@H](Cc2ccccc2)NC(=O)[C@@H](NC(=O)[C@H](CC(C)C)NC(C)=O)[C@@H](C)O)C(=O)N[C@@H](C)C(=O)N[C@@H](Cc2ccc(O)cc2)C(=O)N[C@@H](Cc2c[nH]c3ccccc23)C(=O)N[C@@H](C)C(=O)N[C@@H](CCC(N)=O)C(=O)N[C@@H](CC2CCC2)C(=O)N1)C(=O)N[C@@H](C)C(N)=O [compound 239] (Ac-LTF[R8]AYWAQ[Cba][S5]AW[Nle]A-NH2; staple 4-11) | 100 to 1000 | 10 to 100 | 10 to 100 | 10 to 100
CCCC[C@H](NC(=O)[C@H](Cc1c[nH]c2ccccc12)NC(=O)[C@H](C)NC(=O)[C@]1(C)CCCC=CCCCCCC[C@@](C)(NC(=O)[C@H](Cc2ccccc2)NC(=O)[C@@H](NC(=O)[C@H](CCC(=O)O)NC(C)=O)[C@@H](C)O)C(=O)N[C@@H](C)C(=O)N[C@@H](Cc2ccc(O)cc2)C(=O)N[C@@H](Cc2c[nH]c3ccccc23)C(=O)N[C@@H](C)C(=O)N[C@@H](CCC(N)=O)C(=O)N[C@@H](CC2CCC2)C(=O)N1)C(=O)N[C@@H](C)C(N)=O [compound 240] (Ac-ETF[R8]AYWAQ[Cba][S5]AW[Nle]A-NH2; staple 4-11) | 100 to 1000 | 10 to 100 | 10 to 100 | < 10
CCCC[C@H](NC(=O)[C@H](Cc1c[nH]c2ccccc12)NC(=O)[C@H](C)NC(=O)[C@]1(C)CCCC=CCCCCCC[C@@](C)(NC(=O)[C@H](Cc2ccccc2)NC(=O)[C@@H](NC(=O)[C@H](CC(C)C)NC(C)=O)[C@@H](C)O)C(=O)N[C@@H](CCC(=O)O)C(=O)N[C@@H](Cc2ccc(O)cc2)C(=O)N[C@@H](Cc2c[nH]c3ccccc23)C(=O)N[C@@H](C)C(=O)N[C@@H](CCC(N)=O)C(=O)N[C@@H](CC2CCC2)C(=O)N1)C(=O)N[C@@H](C)C(N)=O [compound 241] (Ac-LTF[R8]EYWAQ[Cba][S5]AW[Nle]A-NH2; staple 4-11) | 100 to 1000 | 10 to 100 | 10 to 100 | < 10
CCCC[C@H](NC(=O)[C@H](C)NC(=O)[C@H](CO)NC(=O)[C@]1(C)CCCC=CCCCCCC[C@@](C)(NC(=O)[C@H](Cc2ccccc2)NC(=O)[C@@H](NC(=O)[C@H](CC(C)C)NC(C)=O)[C@@H](C)O)C(=O)N[C@@H](CCC(=O)O)C(=O)N[C@@H](Cc2ccc(O)cc2)C(=O)N[C@@H](Cc2c[nH]c3ccccc23)C(=O)N[C@@H](Cc2c[nH]c3ccccc23)C(=O)N[C@@H](CCC(N)=O)C(=O)N[C@@H](CC2CCC2)C(=O)N1)C(=O)N[C@@H](C)C(N)=O [compound 246] (Ac-LTF[R8]EYWWQ[Cba][S5]SA[Nle]A-NH2; staple 4-11) | 100 to 1000 | 10 to 100 | 10 to 100 | < 10
CC[C@H](C)[C@H](NC(=O)[C@H](C)NC(=O)[C@H](C)NC(=O)[C@]1(C)CCCC=CCCCCCC[C@@](C)(NC(=O)[C@H](Cc2ccc(F)c(F)c2)NC(=O)[C@@H](NC(=O)[C@H](CC(C)C)NC(C)=O)[C@@H](C)O)C(=O)N[C@@H](CCC(=O)O)C(=O)N[C@@H](Cc2ccc(O)cc2)C(=O)N[C@@H](Cc2c[nH]c3ccccc23)C(=O)N[C@@H](C)C(=O)N[C@@H](CCC(N)=O)C(=O)N[C@@H](CC2CCC2)C(=O)N1)C(=O)N[C@H](C)C(N)=O [compound 248] (Ac-LT[Phe(3,4-F2)][R8]EYWAQ[Cba][S5]AAI[dA]-NH2; staple 4-11) | 10 to 100 | 10 to 100 | 10 to 100 | < 10
CCCCCCCCCCCCCCCC(=O)N[C@@H](CCC(=O)O)C(=O)N[C@H](C(=O)N[C@@H](Cc1ccccc1)C(=O)N[C@]1(C)CCCCCCC=CCCC[C@@](C)(C(=O)N[C@@H](CO)C(=O)N[C@@H](C)C(=O)N[C@@H](C)C(N)=O)NC(=O)[C@H](CC2CCC2)NC(=O)[C@H](CCC(N)=O)NC(=O)[C@H](C)NC(=O)[C@H](Cc2c[nH]c3ccccc23)NC(=O)[C@H](Cc2ccc(O)cc2)NC(=O)[C@H](CCC(=O)O)NC1=O)[C@@H](C)O [compound 250] (Palmitoyl-ETF[R8]EYWAQ[Cba][S5]SAA-NH2; staple 4-11) | > 1000 | > 1000 | 100 to 1000 | 100 to 1000
CC(=O)N[C@@H](CC(C)C)C(=O)N[C@H](C(=O)N[C@@H](Cc1ccccc1)C(=O)N[C@]1(C)CCCCCCC=CCCC[C@@](C)(C(=O)N[C@@H](CO)C(=O)N[C@@H](C)C(=O)N[C@@H](C)C(N)=O)NC(=O)[C@H](CC2CCC2)NC(=O)[C@H](CCC(N)=O)NC(=O)[C@H](C)NC(=O)[C@H](Cc2c[nH]c3ccccc23)NC(=O)[C@H](Cc2ccc(O)cc2)NC(=O)[C@H](C)NC1=O)[C@@H](C)O [compound 255] (Ac-LTF[R8]AYWAQ[Cba][S5]SAA-NH2; staple 4-11) | 10 to 100 | 10 to 100 | 10 to 100 | < 10
